{"source": "ChEMBL document CHEMBL6178002", "about": "“Identification of a RANKL/TNF-α Dual-Inhibitor as a Potential Disease-Modifying Agent for the Treatment of Knee Osteoarthritis” (J Med Chem, 2025)", "key": {"Bone marrow macrophage [1]": {"test_system": "Bone marrow macrophage", "test": "Inhibition of RANKL/M-CSF-induced osteoclastogenesis in bone marrow macrophage cells (unknown origin) assessed as decrease in c-Fos mRNA level at 1 uM by RT-qPCR analysis", "format": "functional, cell-based", "settings": "time <= 5.0 day"}, "[2]": {"test": "AUC (0 to t) in male Sprague-Dawley rat at 10 mg/kg, po measured for 0.25 to 24 hrs", "format": "ADME, organism-based", "settings": "in vivo, time 0.25-24 hrs"}, "Bone marrow cell": {"test_system": "Bone marrow cell", "test": "Inhibition of RANKL/M-CSF-induced osteoclastogenesis in male C57/BL6 mouse bone marrow cells at 1 uM by TRAP staining based analysis", "format": "functional", "settings": "time 1-7 day"}, "Bone marrow macrophage [3]": {"test_system": "Bone marrow macrophage", "test": "Inhibition of RANKL/M-CSF-induced osteoclastogenesis in bone marrow macrophage cells (unknown origin) assessed as decrease in TRAP mRNA level incubated for 48 hrs by RT-qPCR analysis", "format": "functional, cell-based", "settings": "dose <= 5.0 µM"}, "RAW264.7 [4]": {"test_system": "RAW264.7", "test": "Inhibition of NFkappaB activation in mouse RAW264.7 cells assessed as reduction in TNF-alpha-induced NF-kappaB p65 phosphorylation at 10 uM preincubated for 12 hrs followed by TNF-alpha addition measured after 2 hrs by immunofluorescence based analysis", "format": "cell-based", "settings": "time 14.0 hrs"}, "Bone marrow macrophage [5]": {"test_system": "Bone marrow macrophage", "test": "Inhibition of RANKL/M-CSF-induced osteoclastogenesis in bone marrow macrophage cells (unknown origin) assessed as decrease in NFATC1 level incubated for 48 hrs by Western blot analysis", "format": "functional, cell-based", "settings": "dose <= 2.5 µM"}, "[6]": {"test": "Inhibition of RANKL/M-CSF-induced osteoclastogenesis in male C57/BL6 mouse bone marrow cells at 0.1 uM incubated for 5 to 7 days by TRAP staining based analysis relative to control", "format": "functional", "settings": "C57/BL6, Bone marrow cell, time 5-7 day"}, "Bone marrow macrophage [7]": {"test_system": "Bone marrow macrophage", "test": "Inhibition of RANKL/M-CSF-induced osteoclastogenesis in bone marrow macrophage cells (unknown origin) assessed as decrease in NFATC1 mRNA level at 1 uM by RT-qPCR analysis", "format": "functional, cell-based", "settings": "time <= 5.0 day"}, "[8]": {"molecular_target": "T1, Tumor necrosis factor ligand superfamily member 11 (Homo sapiens, UniProt O14788)", "T1 sequence (O14788 whole entry)": "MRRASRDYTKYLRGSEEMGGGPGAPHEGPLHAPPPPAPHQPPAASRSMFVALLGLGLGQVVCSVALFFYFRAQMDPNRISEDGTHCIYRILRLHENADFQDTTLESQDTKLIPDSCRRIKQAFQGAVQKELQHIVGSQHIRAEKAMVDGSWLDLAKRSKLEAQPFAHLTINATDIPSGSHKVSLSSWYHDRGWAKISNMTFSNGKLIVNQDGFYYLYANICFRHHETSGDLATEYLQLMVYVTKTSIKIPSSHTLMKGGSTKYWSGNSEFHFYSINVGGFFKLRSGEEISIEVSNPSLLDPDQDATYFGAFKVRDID", "test": "Binding affinity to CM5 chip-immobilized human RANKL assessed as dissociation constant by SPR analysis"}, "Bone marrow macrophage [9]": {"test_system": "Bone marrow macrophage", "test": "Inhibition of RANKL/M-CSF-induced osteoclastogenesis in bone marrow macrophage cells (unknown origin) assessed as decrease in MMP-9 level at 1 uM by Western blot analysis", "format": "functional, cell-based", "settings": "time <= 5.0 day"}, "Bone marrow macrophage [10]": {"test_system": "Bone marrow macrophage", "test": "Inhibition of RANKL/M-CSF-induced osteoclastogenesis in bone marrow macrophage cells (unknown origin) assessed as decrease in cathepsin K mRNA level incubated for 48 hrs by RT-qPCR analysis", "format": "functional, cell-based", "settings": "dose <= 5.0 µM"}, "RAW264.7 [11]": {"test_system": "RAW264.7", "test": "Anti-inflammatory activity in LPS-stimulated mouse RAW264.7 cells assessed as decrease in IL-1beta level at 10 uM preincubated for 24 hrs followed by LPS addition measured after 2 hrs by RT-qPCR analysis", "format": "functional, cell-based", "settings": "time 26.0 hrs"}, "[12]": {"test": "Tmax in male Sprague-Dawley rat at 10 mg/kg, po measured for 0.25 to 24 hrs", "format": "ADME, organism-based", "settings": "in vivo, time 0.25-24 hrs"}, "[13]": {"test": "Cmax in male Sprague-Dawley rat at 1 mg/kg, iv measured for 0.25 to 24 hrs", "format": "ADME, organism-based", "settings": "in vivo, time 0.25-24 hrs"}, "Primary chondrocyte [14]": {"test_system": "Primary chondrocyte", "test": "Anti-inflammatory activity in IL-1beta-treated C57/BL6 mouse primary chondrocytes assessed as increase in collagen II mRNA level at 10 uM incubated for 24 hrs by RT-qPCR analysis", "format": "functional, cell-based"}, "Bone marrow macrophage [15]": {"test_system": "Bone marrow macrophage", "test": "Inhibition of RANKL/M-CSF-induced osteoclastogenesis in bone marrow macrophage cells (unknown origin) assessed as decrease in TRAP level at 1 uM by Western blot analysis", "format": "functional, cell-based", "settings": "time <= 5.0 day"}, "Bone marrow macrophage [16]": {"test_system": "Bone marrow macrophage", "test": "Inhibition of RANKL/M-CSF-induced osteoclastogenesis in bone marrow macrophage cells (unknown origin) assessed as decrease in c-Fos level incubated for 48 hrs by Western blot analysis", "format": "functional, cell-based", "settings": "dose <= 2.5 µM"}, "Bone marrow macrophage [17]": {"test_system": "Bone marrow macrophage", "test": "Inhibition of RANKL/M-CSF-induced osteoclastogenesis in bone marrow macrophage cells (unknown origin) assessed as decrease in TRAP mRNA level at 1 uM by RT-qPCR analysis", "format": "functional, cell-based", "settings": "time <= 5.0 day"}, "Primary chondrocyte [18]": {"test_system": "Primary chondrocyte", "test": "Anti-inflammatory activity in IL-1beta-treated C57/BL6 mouse primary chondrocytes assessed as decrease in MMP-3 mRNA level at 10 uM incubated for 24 hrs by RT-qPCR analysis", "format": "functional, cell-based"}, "Bone marrow macrophage [19]": {"test_system": "Bone marrow macrophage", "test": "Inhibition of RANKL/M-CSF-induced osteoclastogenesis in bone marrow macrophage cells (unknown origin) assessed as decrease in TRAP level incubated for 48 hrs by Western blot analysis", "format": "functional, cell-based", "settings": "dose <= 2.5 µM"}}, "note": "The source made the active and inactive calls. No cut-off for these calls is given here.", "data": [{"smiles": "Cc1cccc(C)c1NC(=O)[C@@H]1Cc2c([nH]c3ccccc23)C2(CN(c3ccccc3)C2)N1", "values": [{"measurement": "inhibition", "setting": "Bone marrow macrophage [1]", "result": "Time-dependent-effect"}, {"measurement": "AUC(0-t)", "setting": "[2]", "result": 1620, "unit": "ng·h/mL"}, {"measurement": "inhibition", "setting": "Bone marrow cell", "result": "Time-dependent-effect"}, {"measurement": "inhibition", "setting": "Bone marrow macrophage [3]", "result": "Dose-dependent-effect"}, {"measurement": "inhibition", "setting": "RAW264.7 [4]", "result": "Active"}, {"measurement": "inhibition", "setting": "Bone marrow macrophage [5]", "result": "Dose-dependent-effect"}, {"measurement": "inhibition at 0.1 µM", "setting": "[6]", "result": 59.7, "unit": "%"}, {"measurement": "inhibition", "setting": "Bone marrow macrophage [7]", "result": "Time-dependent-effect"}, {"measurement": "Kd", "setting": "[8]", "result": 3.98, "unit": "µM"}, {"measurement": "inhibition", "setting": "Bone marrow macrophage [9]", "result": "Time-dependent-effect"}, {"measurement": "inhibition", "setting": "Bone marrow macrophage [10]", "result": "Dose-dependent-effect"}, {"measurement": "Activity", "setting": "RAW264.7 [11]", "result": "Active"}, {"measurement": "Tmax", "setting": "[12]", "result": 30, "unit": "min"}, {"measurement": "Cmax", "setting": "[13]", "result": 338, "unit": "ng/mL"}, {"measurement": "Activity", "setting": "Primary chondrocyte [14]", "result": "Active"}, {"measurement": "inhibition", "setting": "Bone marrow macrophage [15]", "result": "Time-dependent-effect"}, {"measurement": "inhibition", "setting": "Bone marrow macrophage [16]", "result": "Dose-dependent-effect"}, {"measurement": "inhibition", "setting": "Bone marrow macrophage [17]", "result": "Time-dependent-effect"}, {"measurement": "Activity", "setting": "Primary chondrocyte [18]", "result": "Active"}, {"measurement": "inhibition", "setting": "Bone marrow macrophage [19]", "result": "Dose-dependent-effect"}]}]}
